Measurements reported in patent US12202821B2, “Herbicidal compounds” (SYNGENTA CROP PROTECTION AG, priority 2019, dated 2025).

How the values were obtained:
Type in all cases: in vivo
[1] = test system: CHEAL; assay: Post-emergence biological efficacy; conditions: Chenopodium album, 312 h, evaluated after 13 days, read-out: damage to plant (100=total damage to plant; 0=no damage to plant), CHEAL
Method: (§1) Post-Emergence Biological Efficacy
(§2) Seeds of weeds and/or crops were sown in standard soil in pots. After cultivation for 8 days under controlled conditions in a glasshouse (at 24/16° C., day/night; 14 hours light; 65% humidity), the plants were sprayed with an aqueous spray solution derived from the formulation of the technical active ingredient in acetone/water (50:50) solution containing 0.5% Tween 20 (polyoxyethylene sorbitan monolaurate, CAS RN 9005-64-5) to give the desired final dose of test compound.
(§3) The test plants were then grown on under controlled conditions in a glasshouse (at 24/16° C., day/night; 14 hours light; 65% humidity) and watered twice daily. After 13 days the test was evaluated (100=total damage to plant; 0=no damage to plant).

[2] = test system: SETFA; assay: Post-emergence biological efficacy; conditions: Setaria faberi, 312 h, evaluated after 13 days, read-out: damage to plant (100=total damage to plant; 0=no damage to plant), SETFA
Method: as §1, §2, §3

[3] = test system: AMAPA; assay: Post-emergence biological efficacy; conditions: 312 h, evaluated after 13 days, read-out: damage to plant (100=total damage to plant; 0=no damage to plant), AMAPA
Method: as §1, §2, §3

[4] = test system: LOLPE; assay: Post-emergence biological efficacy; conditions: 312 h, evaluated after 13 days, read-out: damage to plant (100=total damage to plant; 0=no damage to plant), LOLPE
Method: as §1, §2, §3

[5] = test system: DIGSA; assay: Post-emergence biological efficacy; conditions: Digitaria sanguinalis, 312 h, evaluated after 13 days, read-out: damage to plant (100=total damage to plant; 0=no damage to plant), DIGSA
Method: as §1, §2, §3

[6] = test system: ELEIN; assay: Post-emergence biological efficacy; conditions: 312 h, evaluated after 13 days, read-out: damage to plant (100=total damage to plant; 0=no damage to plant), ELEIN
Method: as §1, §2, §3

[7] = test system: ECHCG; assay: Post-emergence biological efficacy; conditions: Echinochloa crus-galli, 312 h, evaluated after 13 days, read-out: damage to plant (100=total damage to plant; 0=no damage to plant), ECHCG
Method: as §1, §2, §3

[8] = test system: IPOHE; assay: Post-emergence biological efficacy; conditions: Ipomoea hederacea, 312 h, evaluated after 13 days, read-out: damage to plant (100=total damage to plant; 0=no damage to plant), IPOHE
Method: as §1, §2, §3

[9] = test system: EPHHL; assay: Post-emergence biological efficacy; conditions: 312 h, evaluated after 13 days, read-out: damage to plant (100=total damage to plant; 0=no damage to plant), EPHHL
Method: as §1, §2, §3

[10] = test system: SETFA; assay: Pre-emergence biological efficacy; conditions: Setaria faberi, 312 h, evaluated after 13 days, read-out: damage to plant (100=total damage to plant; 0=no damage to plant), SETFA
Method: (§4) Pre-Emergence Biological Efficacy
as §2, with “one day” for “8 days”
(§5) The test plants were then grown under controlled conditions in the glasshouse (at 24/16° C., day/night; 14 hours light; 65% humidity) and watered twice daily. After 13 days the test was evaluated (100=total damage to plant; 0=no damage to plant).

[11] = test system: AMAPA; assay: Pre-emergence biological efficacy; conditions: 312 h, evaluated after 13 days, read-out: damage to plant (100=total damage to plant; 0=no damage to plant), AMAPA
Method: as §4
as §2, with “one day” for “8 days”
as §5

[12] = test system: LOLPE; assay: Pre-emergence biological efficacy; conditions: 312 h, evaluated after 13 days, read-out: damage to plant (100=total damage to plant; 0=no damage to plant), LOLPE
Method: as §4
as §2, with “one day” for “8 days”
as §5

[13] = test system: ECHCG; assay: Pre-emergence biological efficacy; conditions: Echinochloa crus-galli, 312 h, evaluated after 13 days, read-out: damage to plant (100=total damage to plant; 0=no damage to plant), ECHCG
Method: as §4
as §2, with “one day” for “8 days”
as §5

[14] = test system: IPOHE; assay: Pre-emergence biological efficacy; conditions: Ipomoea hederacea, 312 h, evaluated after 13 days, read-out: damage to plant (100=total damage to plant; 0=no damage to plant), IPOHE
Method: as §4
as §2, with “one day” for “8 days”
as §5

[15] = test system: EPHHL; assay: Pre-emergence biological efficacy; conditions: 312 h, evaluated after 13 days, read-out: damage to plant (100=total damage to plant; 0=no damage to plant), EPHHL
Method: as §4
as §2, with “one day” for “8 days”
as §5

Row | Compound | pest or weed control at 250 g/ha [1] [%] | pest or weed control at 250 g/ha [2] [%] | pest or weed control at 250 g/ha [3] [%] | pest or weed control at 250 g/ha [4] [%] | pest or weed control at 250 g/ha [5] [%] | pest or weed control at 250 g/ha [6] [%] | pest or weed control at 250 g/ha [7] [%] | pest or weed control at 250 g/ha [8] [%] | pest or weed control at 250 g/ha [9] [%] | pest or weed control at 250 g/ha [10] [%] | pest or weed control at 250 g/ha [11] [%] | pest or weed control at 250 g/ha [12] [%] | pest or weed control at 250 g/ha [13] [%] | pest or weed control at 250 g/ha [14] [%] | pest or weed control at 250 g/ha [15] [%]
1 | CCOC(=O)C1(C)CC(c2cc(-n3c(=O)n(C)c(=S)n(C)c3=O)c(F)cc2Cl)=NO1 (stereo not shown) [Compound 47, ethyl 3-[2-chloro-5-(3,5-dimethyl-2,6-dioxo-4-thioxo-1,3,5-triazinan-1-yl)-4-fluoro-phenyl]-5-methyl-4H-isoxazole-5-carboxylate] | 100 | 100 | 100 | 100 | 100 | 100 | 100 | 100 | 100 | 100 | 100 | 70 | 100 | 100 | 100
2 | Cn1c(=S)n(C)c(=O)n(-c2cc(C3=NOC(C)(CO)C3)c(Cl)cc2F)c1=O (stereo not shown) [Compound 49, 3-[4-chloro-2-fluoro-5-[5-(hydroxymethyl)-5-methyl-4H-isoxazol-3-yl]phenyl]-1,5-dimethyl-6-thioxo-1,3,5-triazinane-2,4-dione] | 100 | 100 | 100 | 60 | 90 | 90 | 70 | 100 | 100 | 100 | 100 | 90 | 90 | 90 | 100
3 | Cn1c(=S)n(C)c(=O)n(-c2cc(C3=NOC(C)(COS(C)(=O)=O)C3)c(Cl)cc2F)c1=O (stereo not shown) [Compound 53, [3-[2-chloro-5-(3,5-dimethyl-2,6-dioxo-4-thioxo-1,3,5-triazinan-1-yl)-4-fluoro-phenyl]-5-methyl-4H-isoxazol-5-yl]methyl methanesulfonate] | 90 | 40 | 90 | 40 | 70 | 80 | 30 | 80 | 90 | 100 | 100 | 70 | 60 | 0 | –
4 | COC(=O)C1(C(F)(F)F)CC(c2cc(-n3c(=O)n(C)c(=S)n(C)c3=O)c(F)cc2Cl)=NO1 (stereo not shown) [Compound 262, Methyl 3-[2-chloro-5-(3,5-dimethyl-2,6-dioxo-4-thioxo-1,3,5-triazinan-1-yl)-4-fluoro-phenyl]-5-trifluoromethyl-4H-isoxazole-5-carboxylate] | 30 | 30 | 40 | 0 | 50 | 40 | 20 | 50 | 60 | 50 | – | 30 | 30 | 0 | 0
